From patent US5766848A (Synaptic Pharmaceutical Corporation, priority 1994, dated 1998)
Several values for one entry are separate records, joined by “and”; a condition that tells them apart may be missing. Equal entries are not always repeated. Structures can show the parent of a compound that is named as a salt. Where two headings read alike, the source gives them in different places. Blank lines part the entries; values can stand above or below the compound they belong to.

How the values were obtained:
[1] = system: dog BGT-1; settings: read-out: IC50, dog VGT-1, inhibition of [3H]GABA uptake; oocytes (Yamauchi et al., 1992); except GABA estimated from percent inhibition at a single concentration; cited from earlier work
[2] = system: rat brain aggregates; assay: Inhibition of [3H]GABA uptake in rat brain aggregates; format: cell-based; settings: read-out: IC50, control, inhibition of [3H]GABA uptake in rat brain aggregates
Method: Briefly, adult rat brains were removed from the skull and the cerebral cortex was dissected and placed in ice-cold HBS. […] The preparation was washed once by centrifugation, then resuspended in HBS.
The filters were washed with ice-cold HBS, punched into vials, and radioactivity determined by scintillation counting. Protein was determined in an aliquot of the aggregate preparation using the BIO-RAD protein assay kit.
(§1) Data represent means±SEM.

[3] = target: T1, human BGT-1 (Homo sapiens, UniProt P48065)
T1 sequence (P48065 1-614 C10Y): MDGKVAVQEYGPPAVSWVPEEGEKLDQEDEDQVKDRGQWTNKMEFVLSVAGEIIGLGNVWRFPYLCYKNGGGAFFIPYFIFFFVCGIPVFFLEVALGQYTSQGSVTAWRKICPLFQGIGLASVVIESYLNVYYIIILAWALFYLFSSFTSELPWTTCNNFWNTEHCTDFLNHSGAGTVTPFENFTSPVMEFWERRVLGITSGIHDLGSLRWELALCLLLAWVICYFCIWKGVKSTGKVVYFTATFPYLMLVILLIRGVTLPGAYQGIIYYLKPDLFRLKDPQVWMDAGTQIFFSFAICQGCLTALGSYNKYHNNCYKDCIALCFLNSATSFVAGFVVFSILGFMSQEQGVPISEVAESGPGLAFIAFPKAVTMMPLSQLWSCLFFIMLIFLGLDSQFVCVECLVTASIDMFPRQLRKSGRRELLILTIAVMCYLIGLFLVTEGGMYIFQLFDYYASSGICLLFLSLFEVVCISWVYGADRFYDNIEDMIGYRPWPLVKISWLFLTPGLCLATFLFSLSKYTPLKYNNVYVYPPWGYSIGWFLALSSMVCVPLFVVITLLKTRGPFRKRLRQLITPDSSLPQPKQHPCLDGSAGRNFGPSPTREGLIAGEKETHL
Method: (§2) Cells were grown under standard conditions (37° C., 5% CO2) in Dulbecco's modified Eagles's medium (GIBCO, Grand Island, N.Y.).
(§3) After 10 minutes the medium was removed and unlabeled drugs in HBS were added (450 μl/well). […] Plates were incubated at 37° C. for 10 minutes, then washed rapidly 3× with ice-cold HBS, using a 24-position plate washer (Brandel, Gaithersburg, Mass.; model PW-12). Cells were solubilized with 0.05% sodium deoxycholate/0.1N NaOH (0.25 ml/well), an aliquot neutralized with 1N HCl, and radioactivity was determined by scintillation counting. Protein was quantified in an aliquot of the solubilized cells using a BIO-RAD protein assay kit, according to the manufacturer's directions.
(§4) Data Analysis: Competition curves were conducted in duplicate, using 10 concentrations of unlabeled drug. […] All data throughout the paper represent means±SEM.
(§5) Cells were grown under standard conditions (37° C., 5% CO2) in DMEM (Dulbecco's modified Eagles's medium; GIBCO, Grand Island, N.Y.).
(§6) Cells grown in 24-well plates were washed 3× with HEPES-buffered saline (HBS, in mM: NaCl, 150; HEPES, 20; CaCl2, 1; glucose, 10; KCl, 5; MgCl2 1; pH 7.4) and allowed to equilibrate on a 37° C. slide warmer. After 10 minutes the medium was removed and unlabeled drugs in HBS were added (450 μl/well). […] Plates were incubated at 37° C. for 10 minutes, then washed rapidly 3× with ice-cold HBS, using a 24-position plate washer (Brandel, Gaithersburg, Mass.; model PW-12). Cells were solubilized with 0.05% sodium deoxycholate/0.1N NaOH (0.25 ml/well), an aliquot neutralized with 1N HCl, and radioactivity was determined by scintillation counting. Protein was quantified in an aliquot of the solubilized cells using a BIO-RAD protein assay kit, according to the manufacturer's directions.
(§7) Competition curves were conducted in duplicate, using 10 concentrations of unlabeled drug. […] All data throughout the paper represent means±S.E.M.

[4] = target: T1, human BGT-1; assay: cell-based
Method: as §2, §3, §4, §5, §6, §7

[5] = system: neuronal cultures; assay: Inhibition of [3H]GABA uptake in primary rat neuronal cultures; format: cell-based
Method: Brains were removed aseptically from E17 embryonic Sprague-Dawley rats brains, carefully dissected free of meninges, and kept on ice. A single-cell suspension was made by mincing the brains, followed by trituration through a serological pipet. […] On day three cytosine β-D-arabinofuransoside (3 μM) was added to control the proliferation of non-neuronal cells. The cultures were used for transport assay approximately one week after plating.
as §1

[6] = target: T2, human GAT-3 (Homo sapiens, UniProt P48066); assay: Inhibition of [3H]GABA uptake, human GAT-3 stable LM(tk-) cell line; format: cell-based; settings: read-out: IC50, human GAT-3, inhibition of [3H]GABA uptake, Table 9, means ± S.E.M.
T2 construct: expressed in transfected cells
T2 sequence (P48066 1-632): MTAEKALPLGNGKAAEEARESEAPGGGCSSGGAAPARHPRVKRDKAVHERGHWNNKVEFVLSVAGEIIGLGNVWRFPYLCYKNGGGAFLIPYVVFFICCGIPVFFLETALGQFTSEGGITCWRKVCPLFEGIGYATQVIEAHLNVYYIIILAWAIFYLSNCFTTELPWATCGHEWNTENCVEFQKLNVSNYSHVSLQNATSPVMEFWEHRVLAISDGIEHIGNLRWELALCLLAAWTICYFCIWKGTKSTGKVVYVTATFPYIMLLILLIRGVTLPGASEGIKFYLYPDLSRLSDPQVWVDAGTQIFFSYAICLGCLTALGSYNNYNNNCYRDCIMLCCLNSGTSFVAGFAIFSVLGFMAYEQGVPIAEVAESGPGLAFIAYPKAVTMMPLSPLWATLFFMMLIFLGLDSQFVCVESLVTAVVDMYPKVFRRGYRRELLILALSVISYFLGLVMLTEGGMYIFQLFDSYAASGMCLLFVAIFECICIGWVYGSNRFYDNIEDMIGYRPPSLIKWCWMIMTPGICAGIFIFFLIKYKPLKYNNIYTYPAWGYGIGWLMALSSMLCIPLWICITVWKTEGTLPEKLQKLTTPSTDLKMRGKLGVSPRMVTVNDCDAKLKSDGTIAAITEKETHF
Method: as §5, §6, §7

[7] = system: brain synaptosomes; settings: Ali et al. (1985); cited from earlier work
[8] = literature reports; cited from earlier work
[9] = system: Type 1 astrocytes; assay: Inhibition of [3H]GABA uptake in Type 1 astrocyte cultures; format: cell-based, rat; settings: read-out: IC50, Type 1 astrocytes, inhibition of [3H]GABA uptake
Method: Preparation of primary rat astrocyte cell cultures: Primary glial cultures were established from newborn Sprague-Dawley rat brains. Brains minus cerebella were removed aseptically and carefully dissected free of meninges. […] The cells were dissociated by trituration through a serological pipet. Separate procedures were then used for the preparation of Type-1 and O-2A/Type-2 astrocyte cultures, as will now be described.
For the preparation of Type-1 astrocyte cultures, cells were plated onto uncoated 75 cm^2 flasks at low density (1 brain per 10 flasks, or approximately 8×10^4 cells/cm^2). The medium was changed the following day and twice a week thereafter.
as §1

[10] = target: T3, rat GAT-2 (Rattus norvegicus, UniProt P31646); assay: Inhibition of [3H]GABA uptake, rat GAT-2 stable LM(tk-) cell line; format: cell-based; settings: read-out: IC50, rat GAT-2, inhibition of [3H]GABA uptake, Table 9, means ± S.E.M.
T3 construct: expressed in transfected cells
T3 sequence (P31646 1-602): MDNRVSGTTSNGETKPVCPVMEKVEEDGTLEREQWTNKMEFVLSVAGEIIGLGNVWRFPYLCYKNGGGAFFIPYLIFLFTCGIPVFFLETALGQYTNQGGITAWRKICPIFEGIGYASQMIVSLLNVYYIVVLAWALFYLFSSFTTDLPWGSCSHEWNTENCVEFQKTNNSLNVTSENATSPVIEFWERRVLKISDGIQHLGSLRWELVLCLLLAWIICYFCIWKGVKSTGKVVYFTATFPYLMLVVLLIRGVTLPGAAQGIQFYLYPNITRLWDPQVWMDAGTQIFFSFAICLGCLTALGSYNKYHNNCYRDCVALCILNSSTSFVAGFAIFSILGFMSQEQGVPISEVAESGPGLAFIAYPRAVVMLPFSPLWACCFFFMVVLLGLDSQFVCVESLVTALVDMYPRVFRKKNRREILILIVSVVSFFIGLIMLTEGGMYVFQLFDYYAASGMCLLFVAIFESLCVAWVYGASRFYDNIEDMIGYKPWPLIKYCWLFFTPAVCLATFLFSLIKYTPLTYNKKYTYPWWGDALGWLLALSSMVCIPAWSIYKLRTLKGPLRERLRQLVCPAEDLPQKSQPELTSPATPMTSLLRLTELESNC
Method: as §5, §6, §7

[11] = Phase II clinical trials; cited from earlier work
[12] = target: T4, mouse GAT-2 (Mus musculus, UniProt P31651); set-up: host or cells: oocytes (Lopez-Corcuera et al., 1992); settings: read-out: IC50, mouse GAT-2, inhibition of [3H]GABA uptake; oocytes (Lopez-Corcuera et al., 1992); except GABA estimated from percent inhibition at one or two concentrations; cited from earlier work
T4 sequence (P31651 1-614): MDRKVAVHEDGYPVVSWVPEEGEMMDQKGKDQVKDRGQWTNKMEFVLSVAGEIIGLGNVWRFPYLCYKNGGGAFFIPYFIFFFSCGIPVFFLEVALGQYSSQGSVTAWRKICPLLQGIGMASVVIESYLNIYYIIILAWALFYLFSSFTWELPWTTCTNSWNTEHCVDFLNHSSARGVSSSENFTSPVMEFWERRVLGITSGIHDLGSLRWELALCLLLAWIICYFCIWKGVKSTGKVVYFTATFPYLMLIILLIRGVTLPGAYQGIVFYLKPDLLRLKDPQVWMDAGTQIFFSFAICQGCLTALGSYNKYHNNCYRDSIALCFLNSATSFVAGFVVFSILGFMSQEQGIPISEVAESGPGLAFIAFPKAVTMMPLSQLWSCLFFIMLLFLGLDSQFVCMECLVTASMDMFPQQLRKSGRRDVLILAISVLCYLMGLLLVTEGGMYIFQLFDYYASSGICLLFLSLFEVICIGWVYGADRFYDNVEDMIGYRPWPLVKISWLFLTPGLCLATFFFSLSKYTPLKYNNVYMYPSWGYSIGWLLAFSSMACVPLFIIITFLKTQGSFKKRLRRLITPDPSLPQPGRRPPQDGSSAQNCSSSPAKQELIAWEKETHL

[13] = target: T4, mouse GAT-2; settings: from Table 1
[14] = target: human GAT-1 (Homo sapiens, UniProt P30531); settings: read-out: IC50, human GAT-1, inhibition of [3H]GABA uptake; Table 9; stable LM(tk-) cell line; means ± S.E.M.
Chain of human GAT-1 (P30531 whole entry): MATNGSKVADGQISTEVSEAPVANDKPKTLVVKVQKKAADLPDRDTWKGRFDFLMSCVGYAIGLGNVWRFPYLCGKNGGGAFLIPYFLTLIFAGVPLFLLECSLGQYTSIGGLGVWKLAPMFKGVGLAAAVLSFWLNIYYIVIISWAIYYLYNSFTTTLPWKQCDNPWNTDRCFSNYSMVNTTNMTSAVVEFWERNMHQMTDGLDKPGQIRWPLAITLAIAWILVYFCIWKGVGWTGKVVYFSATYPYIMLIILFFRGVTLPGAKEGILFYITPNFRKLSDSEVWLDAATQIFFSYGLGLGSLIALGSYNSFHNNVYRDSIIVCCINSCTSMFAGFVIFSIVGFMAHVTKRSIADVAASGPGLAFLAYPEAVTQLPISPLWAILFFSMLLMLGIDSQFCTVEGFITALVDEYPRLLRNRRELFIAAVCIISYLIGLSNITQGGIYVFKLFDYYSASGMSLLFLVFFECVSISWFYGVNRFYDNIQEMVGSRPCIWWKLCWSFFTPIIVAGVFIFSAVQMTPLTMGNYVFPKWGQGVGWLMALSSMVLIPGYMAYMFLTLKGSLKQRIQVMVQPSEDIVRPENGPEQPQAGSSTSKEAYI
Method: as §5, §6, §7

[15] = system: GAT-1; settings: range over compounds and human/rat clones
Method: as §5, §6, §7

[16] = system: GAT-2 and GAT-3; settings: range over clones, regardless of species
Method: as §5, §6, §7

[17] = system: GAT-2 and GAT-3; assay: Inhibition of [3H]GABA uptake at cloned GAT-2 and GAT-3, text summary; settings: read-out: IC50s at GAT-2 and GAT-3 (range); range over clones, regardless of species
Method: as §5, §6, §7

[18] = IC50, hBGT-1, inhibition of [3H]GABA uptake, stably transfected LM(tk-), 50 nM [3H]GABA, mean ± standard error of at least three experiments
[19] = IC50, hBGT-1, inhibition of [3H]GABA uptake
[20] = Rattus norvegicus, Astrocyte, 3 h

Compound: O=C(O)C1CCCNC1 (racemic) [(±)-nipecotic acid, (R,S)-nipecotic acid]
IC50 [1]: 4700 µM

Compound: hydroxynipecotic acid
IC50 ([2]; absence of NNC-711): 10 ± 1 µM
IC50 ([3]; read-out: IC50, hBGT-1, inhibition of [3H]GABA uptake): 2590 µM

IC50 [4, 18]: 160 to 600 µM and 160 µM
Compound: O=C(CCc1ccc(O)cc1)c1c(O)cc(O)cc1O [phloretin]

IC50 [4, 18]: 160 to 600 µM
Compound: O=C(O)C1=CCCN(CCON=C(c2ccccc2)c2ccccc2)C1 [NNC-711, 1-(2-(((diphenylmethylene)amino)oxy)ethyl)-1,2,4,6-tetrahydro-3-pyridinecarboxylic acid hydrochloride]
activity at 10 µM ([5]; read-out: specific [3H]GABA uptake that persisted in neuronal cultures): 31 ± 1%

IC50 [4, 19]: 160 to 600 µM and 380 µM
Compound: NCCS(=O)O [hypotaurine]

Compound: O=C(O)C1CCCN(CCC=C(c2ccccc2)c2ccccc2)C1 (stereo not drawn) [SK&F 89976-A, N-(4,4-diphenyl-3-butenyl)-3-piperidinecarboxylic acid]
IC50 [6]: 944 ± 259 µM
increase in potency over the parent compound (nipecotic acid or guvacine) [7]: 20 fold
anticonvulsive activity in animals [8]: display anticonvulsive activity

Compound: NCC[C@H](N)C(=O)O [L-DABA, L-(2,4)diaminobutyric acid]
IC50 [9, 20]: 3400 µM
IC50 [1]: 4700 µM
IC50 [4, 19]: 160 to 600 µM and 354 µM

Compound: NCCS(=O)(=O)O [taurine]
IC50 ([5]; Neuron, read-out: IC50, Neurons, inhibition of [3H]GABA uptake): 8300 µM
IC50 [9, 20]: ~50 µM
IC50 [9]: 47 ± 10 µM
IC50 ([2]; Rattus norvegicus): 64000 µM
IC50 [4, 19]: 10600 µM
IC50 ([4]; IC50 at hBGT-1 as stated in text): > 10000 µM

IC50 [10]: 1410 ± 250 µM
IC50 [6]: 917 ± 193 µM
IC50 ([3]; read-out: IC50, human BGT-1, inhibition of [3H]GABA uptake, Table 9, stable LM(tk-) cell line, means ± S.E.M.): 1670 ± 722 µM
Compound: Cc1ccsc1C(=CCCN1CCC[C@@H](C(=O)O)C1)c1sccc1C [Tiagabine, (R)-1-[4,4-Bis(3-methyl-2-thienyl)-3-butenyl]-3-piperidencarboxylic acid]
anticonvulsive activity in animals [8]: display anticonvulsive activity
anti-seizure activity in patients [11]: demonstrated anti-seizure activity

Compound: C[N+](C)(C)CC(=O)O [betaine]
IC50 [4, 18]: 934 ± 22 µM
IC50 ([4]; IC50 at hBGT-1 as stated in text, stable LM(tk-) cells, [3H]GABA uptake): 1000 to 2000 µM
IC50 [12]: 206 µM
selectivity (potency) for mouse BGT-1 as compared to dog BGT-1 [13]: 2 fold
selectivity (potency) for mouse BGT-1 as compared to human BGT-1 [13]: 5 fold

IC50 [4, 18]: 1520 µM
Compound: N=C(N)NCCS(=O)(=O)O [GES, guanidinoethanesulfonic acid]

Compound: O=C(O)C1=CCCN(CCC=C(c2ccccc2)c2ccccc2)C1 [SK&F 100330-A]
increase in potency over the parent compound (nipecotic acid or guvacine) [7]: 20 fold

IC50 [10]: 58 ± 5 µM
IC50 [6]: 119 ± 24 µM
IC50 [14]: 14 ± 3 µM
IC50s at GAT-1 (range) [15]: 14 to 39 µM
IC50s at GAT-2 and GAT-3 (range) [16]: 102 to 378 µM
Compound: O=C(O)C1=CCCNC1 [guvacine]
IC50 [12]: 2800 µM

Compound: N[C@@H]1CCC[C@H](C(=O)O)C1 (relative stereo) [ACHC, cis-3-aminocyclohexanecarboxylic acid]
IC50 [4, 19]: 1850 µM

Compound: NCCC(=O)O [β-alanine]
IC50 [12]: 1900 µM
IC50 [17]: 19 to 110 µM

Compound: C=C[C@H]1C[N@@]2CC[C@H]1C[C@@H]2[C@@H](O)c1ccnc2ccc(OC)cc12 [quinidine]
IC50 [4, 19]: 1190 µM
IC50 [12]: 49 µM
